Reference: patent US20250277734A1, “M-MIC: Microfluidic Microbiologically Influenced Corrosion Model” (The Texas A&M University System, priority 2017, published 2025)

Tested on: Shewanella oneidensis biofilms
Assay: Biocide efficacy on S. oneidensis biofilms grown on carbon steel in single-electrode M-MIC (live/dead staining, confocal microscopy)
Assay type: cell-based
Settings: for increase in the percentage of dead cells: 400 ppm biocide added to 12 hour biofilm on carbon steel, after 4 hours SYTO9/propidium iodide staining, 30° C.
Procedure: Biofilms of Shewanella oneidensis (e.g., S. oneidensis, an iron-reducing bacterium commonly found in MIC sites) were grown on carbon steel in the single-metal system, such as M-MIC 200 as depicted in FIG. 2. In this Example 2, the single electrode comprised steel, the substrate 112 comprised glass, and the structure 104 comprised PDMS. Biofilms were developed in the system at 30° C. with a constant flow of Luria-Bertani growth medium which contained 10 g/l tryptone, 5 g/l yeast extract and 15 g/l sodium chloride being introduced at a flow rate of 0.25 mL/h. After 12 hours, flow of growth medium was stopped and 400 ppm of two common oilfield biocides, glutaraldehyde and tetrakis-hydroxymethyl-phosphonium sulfate (THPS), were added to the biofilms. After 4 hours, live and dead cells in the biofilms were stained using SYTO9 (green) and propidium iodide (red), respectively. Stained biofilms were analyzed for the percentage of live and dead cells to determine biocide efficiency. […] In addition to determining the right biocide, similar studies can be conducted with different biocide concentrations to also determine the appropriate biocide dosage.

Row | Compound | increase in the percentage of dead cells [fold] | relative biocide effectiveness against S. oneidensis biofilms (400 ppm, 4 hours, under the conditions tested)
1 | O=CCCCC=O [glutaraldehyde] | 2.1 | 
2 | tetrakis-hydroxymethyl-phosphonium sulfate [THPS] | 3.1 | more effective than glutaraldehyde
